Test results taken from ChEMBL document CHEMBL1142334, “Discovery of a novel class of selective human CB1 inverse agonists” (Bioorg Med Chem Lett, 2008).

Experiments:
[1] = biological target: T1, Cannabinoid receptor 1 (Homo sapiens, UniProt P21554); experiment: Displacement of radioligand from human CB1 receptor expressed in HEK293 cells; format: cell-based
[2] = biological target: Cannabinoid receptor 2 (Homo sapiens, UniProt P34972); experiment: Displacement of radioligand from human CB2 receptor expressed in HEK293 cells; format: cell-based
Cannabinoid receptor 2, sequence (P34972 whole entry): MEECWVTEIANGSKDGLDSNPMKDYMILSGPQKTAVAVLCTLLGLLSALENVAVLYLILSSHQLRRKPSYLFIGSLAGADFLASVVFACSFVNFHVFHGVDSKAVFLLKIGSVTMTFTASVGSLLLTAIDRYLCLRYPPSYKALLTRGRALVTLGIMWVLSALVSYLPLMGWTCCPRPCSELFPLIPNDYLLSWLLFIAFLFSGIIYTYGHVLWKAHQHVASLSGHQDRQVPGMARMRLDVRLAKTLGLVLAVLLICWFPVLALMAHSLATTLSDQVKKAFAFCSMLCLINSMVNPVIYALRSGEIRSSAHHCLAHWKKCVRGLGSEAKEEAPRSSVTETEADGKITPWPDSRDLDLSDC

[3] = biological target: T1, Cannabinoid receptor 1; experiment: Displacement of radioligand from human CB1 receptor expressed in HEK293 cells at 10 uM; format: cell-based
[4] = species on record: Homo sapiens; experiment: Selectivity ratio, Ki for human CB2 receptor to Ki for human CB1 receptor
[5] = biological target: T1, Cannabinoid receptor 1; experiment: Inverse agonist activity at human CB1 receptor expressed in HEK293 EBNA cells by [35S]GTPgammaS incorporation assay; format: functional, cell-based

T1 sequence (P21554 whole entry): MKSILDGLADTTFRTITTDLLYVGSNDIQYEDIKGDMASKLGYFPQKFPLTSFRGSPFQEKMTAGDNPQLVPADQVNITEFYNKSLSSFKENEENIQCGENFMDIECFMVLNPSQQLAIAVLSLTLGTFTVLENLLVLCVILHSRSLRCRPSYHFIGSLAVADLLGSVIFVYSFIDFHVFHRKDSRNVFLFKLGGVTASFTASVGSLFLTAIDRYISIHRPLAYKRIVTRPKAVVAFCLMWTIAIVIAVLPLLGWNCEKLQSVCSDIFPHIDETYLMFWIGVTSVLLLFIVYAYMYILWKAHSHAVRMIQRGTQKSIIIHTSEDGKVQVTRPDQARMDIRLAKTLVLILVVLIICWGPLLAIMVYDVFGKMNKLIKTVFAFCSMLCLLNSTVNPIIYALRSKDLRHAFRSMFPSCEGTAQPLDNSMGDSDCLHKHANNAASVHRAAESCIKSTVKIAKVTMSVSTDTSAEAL

| Ki [1] [nM] | Ki [2] [nM] | inhibition [3] [%] | Ratio Ki [4] | EC50 [5] [nM] | SMILES |
| --- | --- | --- | --- | --- | --- |
| 58 | 22800 | 97 | 393 | – | COc1ccccc1CNC(=O)c1oc2ccc(S(=O)(=O)N3CC(C)CC(C)C3)cc2c1C (stereo not drawn) |
| 90 | 7400 | 95 | 82 | – | Cc1c(C(=O)NC2CCCC2)oc2ccc(S(=O)(=O)N3CC(C)CC(C)C3)cc12 (stereo not drawn) |
| – | – | 83 | – | – | Cc1c(C(=O)NC2CC2)oc2ccc(S(=O)(=O)N3CC(C)CC(C)C3)cc12 (stereo not drawn) |
| 172 | – | 92 | – | – | Cc1c(C(=O)N(C)CCc2ccccc2)oc2ccc(S(=O)(=O)N3CC(C)CC(C)C3)cc12 (stereo not drawn) |
| – | – | 89 | – | – | CCN(CC)C(=O)c1oc2ccc(S(=O)(=O)N3CC(C)CC(C)C3)cc2c1C (stereo not drawn) |
| 5 | 22800 | 96 | 4560 | 72.4 | Cc1c(C(=O)NC2CCCc3ccccc32)oc2ccc(S(=O)(=O)N3CC(C)CC(C)C3)cc12 (stereo not drawn) |
| 62 | 4000 | 95 | 65 | – | Cc1c(C(=O)NCc2ccc(F)cc2)oc2ccc(S(=O)(=O)N3CC(C)CC(C)C3)cc12 (stereo not drawn) |
| – | – | 46 | – | – | Cc1c(C(=O)NCc2cccnc2)oc2ccc(S(=O)(=O)N3CC(C)CC(C)C3)cc12 (stereo not drawn) |
| 92 | 3100 | 98 | 34 | 435 | CCN(Cc1ccccc1)C(=O)c1oc2ccc(S(=O)(=O)N3CC(C)CC(C)C3)cc2c1C (stereo not drawn) |
| – | – | 70 | – | – | Cc1c(C(=O)Nc2cccc(Cl)c2)oc2ccc(S(=O)(=O)N3CC(C)CC(C)C3)cc12 (stereo not drawn) |
| 193 | 4900 | 90 | 25 | – | Cc1c(C(=O)N2CCCCCC2)oc2ccc(S(=O)(=O)N3CC(C)CC(C)C3)cc12 (stereo not drawn) |
| – | – | 11 | – | – | CCN(CC)S(=O)(=O)c1ccc2oc(C(=O)N(C)Cc3ccccc3)c(C)c2c1 |
| – | – | 44 | – | – | Cc1c(C(=O)Nc2ccccc2Cl)oc2ccc(S(=O)(=O)N3CC(C)CC(C)C3)cc12 (stereo not drawn) |
| – | – | 12 | – | – | COc1ccc(Cl)cc1NC(=O)c1oc2ccc(S(=O)(=O)N3CC(C)CC(C)C3)cc2c1C (stereo not drawn) |
| – | – | < 1 | – | – | CCN(CC)CCCNC(=O)c1oc2ccc(S(=O)(=O)N3CC(C)CC(C)C3)cc2c1C (stereo not drawn) |
| 77 | 6600 | 92 | 86 | – | Cc1c(C(=O)NCc2ccccc2)oc2ccc(S(=O)(=O)N3CC(C)CC(C)C3)cc12 (stereo not drawn) |
| 108 | 17400 | 95 | 161 | – | Cc1c(C(=O)NC2CCCCC2)oc2ccc(S(=O)(=O)N3CC(C)CC(C)C3)cc12 (stereo not drawn) |
| 97 | 9900 | 96 | 102 | – | CCOc1ccccc1CNC(=O)c1oc2ccc(S(=O)(=O)N3CC(C)CC(C)C3)cc2c1C (stereo not drawn) |
| – | – | 20 | – | – | Cc1c(C(=O)N(C)Cc2ccccc2)oc2ccc(S(=O)(=O)N3CCCC3)cc12 |
| 198 | 6000 | 92 | 30 | – | Cc1c(C(=O)NCCc2ccccc2)oc2ccc(S(=O)(=O)N3CC(C)CC(C)C3)cc12 (stereo not drawn) |
| – | – | 84 | – | – | Cc1cccc(NC(=O)c2oc3ccc(S(=O)(=O)N4CC(C)CC(C)C4)cc3c2C)c1C (stereo not drawn) |
| – | – | 10 | – | – | Cc1c(C(=O)NCc2ccccn2)oc2ccc(S(=O)(=O)N3CC(C)CC(C)C3)cc12 (stereo not drawn) |
| – | – | 50 | – | – | Cc1c(C(=O)N(C)CCC#N)oc2ccc(S(=O)(=O)N3CC(C)CC(C)C3)cc12 (stereo not drawn) |
| 58 | 4800 | 95 | 83 | – | Cc1c(C(=O)NCc2ccccc2Cl)oc2ccc(S(=O)(=O)N3CC(C)CC(C)C3)cc12 (stereo not drawn) |
| – | – | 27 | – | – | Cc1c(C(=O)N2CCN(C)CC2)oc2ccc(S(=O)(=O)N3CC(C)CC(C)C3)cc12 (stereo not drawn) |

| SMILES | Ki [1] [nM] | Ki [2] [nM] | inhibition [3] [%] | Ratio Ki [4] | EC50 [5] [nM] |
| --- | --- | --- | --- | --- | --- |
| Cc1ccc(CNC(=O)c2oc3ccc(S(=O)(=O)N4CC(C)CC(C)C4)cc3c2C)cc1 (stereo not drawn) | 79 | 19100 | 93 | 242 | – |
| Cc1c(C(=O)N(C)Cc2ccccc2)oc2ccc(S(=O)(=O)N3CC(C)CC(C)C3)cc12 (stereo not drawn) | 59 | 6600 | 93 | 112 | – |
| CCCCNC(=O)c1oc2ccc(S(=O)(=O)N3CC(C)CC(C)C3)cc2c1C (stereo not drawn) | 94 | 9400 | 92 | 100 | – |
